≈ marks a conversion by molar mass, not a printed value.
Assays:
Type in all cases: functional
Candida albicans = assay: Antimicrobial activity against Candida albicans after 72 to 96 hr by two-fold serial dilution method
Salmonella typhi = assay: Antimicrobial activity against Salmonella enterica subsp. enterica serovar Typhi after 24 hr by two-fold serial dilution method
Staphylococcus aureus = assay: Antimicrobial activity against Staphylococcus aureus after 24 hr by two-fold serial dilution method
Aspergillus flavus = assay: Antimicrobial activity against Aspergillus flavus after 72 to 96 hr by two-fold serial dilution method
Rhizopus = assay: Antimicrobial activity against Rhizopus sp. after 72 to 96 hr by two-fold serial dilution method
Pseudomonas aeruginosa = assay: Antimicrobial activity against Pseudomonas aeruginosa after 24 hr by two-fold serial dilution method
Aspergillus niger = assay: Antimicrobial activity against Aspergillus niger after 72 to 96 hr by two-fold serial dilution method
Escherichia coli = assay: Antimicrobial activity against Escherichia coli after 24 hr by two-fold serial dilution method

Compound | MIC (Candida albicans) [µg/mL] | MIC (Salmonella typhi) [µg/mL] | MIC (Staphylococcus aureus) [µg/mL] | MIC (Aspergillus flavus) [µg/mL] | MIC (Rhizopus) [µg/mL] | MIC (Pseudomonas aeruginosa) [µg/mL] | MIC (Aspergillus niger) [µg/mL] | MIC (Escherichia coli) [µg/mL]
CCC1C(c2ccccc2)OC(c2ccccc2)CC12NNC(=S)N2 (centres undefined) | 100 (≈ 283 µM) | 25 (≈ 70.7 µM) | 50 (≈ 141 µM) | 50 (≈ 141 µM) | 100 (≈ 283 µM) | 100 (≈ 283 µM) | 25 (≈ 70.7 µM) | 100 (≈ 283 µM)
O=C(O)c1cn(C2CC2)c2cc(N3CCNCC3)c(F)cc2c1=O [CIPROFLOXACIN] |  | 50 (≈ 151 µM) |  |  |  |  |  | 25 (≈ 75.4 µM)
C[C@@H]1[C@H](O)[C@@H](C)/C=C/C=C/C=C/C=C/C=C/C=C/C=C/[C@H](O[C@@H]2O[C@H](C)[C@@H](O)[C@H](N)[C@@H]2O)C[C@@H]2O[C@](O)(C[C@@H](O)C[C@@H](O)[C@H](O)CC[C@@H](O)C[C@@H](O)CC(=O)O[C@H]1C)C[C@H](O)[C@H]2C(=O)O [AMPHOTERICIN B] | 25 (≈ 27.1 µM) |  |  | 50 (≈ 54.1 µM) | 25 (≈ 27.1 µM) |  | 50 (≈ 54.1 µM) | 
S=C1NN(c2ccccc2)C2(CC(c3ccccc3)OC(c3ccccc3)C2)N1 (centres undefined) | 50 (≈ 125 µM) | 50 (≈ 125 µM) | 50 (≈ 125 µM) | 12.5 (≈ 31.1 µM) | 12.5 (≈ 31.1 µM) | 25 (≈ 62.3 µM) | 50 (≈ 125 µM) | 50 (≈ 125 µM)
CC1C(c2ccccc2)OC(c2ccccc2)CC12NC(=S)NN2c1ccccc1 (centres undefined) | 50 (≈ 120 µM) | 25 (≈ 60.2 µM) | 25 (≈ 60.2 µM) | 12.5 (≈ 30.1 µM) | 25 (≈ 60.2 µM) | 25 (≈ 60.2 µM) | 25 (≈ 60.2 µM) | 12.5 (≈ 30.1 µM)
S=C1NNC2(CC(c3ccccc3)OC(c3ccccc3)C2)N1 (centres undefined) | 200 (≈ 615 µM) | 25 (≈ 76.8 µM) | 12.5 (≈ 38.4 µM) | 100 (≈ 307 µM) | 100 (≈ 307 µM) | 100 (≈ 307 µM) | 50 (≈ 154 µM) | 50 (≈ 154 µM)
CC1C(c2ccccc2)OC(c2ccccc2)CC12NNC(=S)N2 (centres undefined) | 100 (≈ 295 µM) | 100 (≈ 295 µM) | 25 (≈ 73.6 µM) | 50 (≈ 147 µM) | 25 (≈ 73.6 µM) | 50 (≈ 147 µM) | 50 (≈ 147 µM) | 100 (≈ 295 µM)
CCC1C(c2ccccc2)OC(c2ccccc2)CC12NC(=S)NN2c1ccccc1 (centres undefined) | 25 (≈ 58.2 µM) | 25 (≈ 58.2 µM) | 25 (≈ 58.2 µM) | 50 (≈ 116 µM) | 12.5 (≈ 29.1 µM) | 12.5 (≈ 29.1 µM) | 25 (≈ 58.2 µM) | 12.5 (≈ 29.1 µM)

Source: ChEMBL document CHEMBL3045683, “Synthesis, characterisation and antimicrobial activities of novel 7,9-diphenyl-1,2,4-triaza-8-oxa-spiro[4.5]-decan-3-thiones” (2011)
